Test system: Salmonella typhimurium
Assay: Compound was evaluated for its antibacterial activity against Salmonella Typhimurium 2
Format: functional, Salmonella enterica subsp. enterica serovar Typhimurium
Details: Salmonella enterica

SMILES | MIC [ng/mL]
C[C@@H](O)[C@H]1C(=O)N2C(C(=O)[O-])=C(S[C@@H]3CN[C@H](C(=O)Nc4cccc(C(=O)O)c4)C3)[C@H](C)[C@H]12.O.[Na+] | ≤ 8

Test system: Klebsiella pneumoniae
Assay: Compound was evaluated for its antibacterial activity against Klebsiella pneumoniae 4 ESBL
Format: functional
Details: not given

SMILES | MIC [µg/mL]
C[C@@H](O)[C@H]1C(=O)N2C(C(=O)[O-])=C(S[C@@H]3CN[C@H](C(=O)Nc4cccc(C(=O)O)c4)C3)[C@H](C)[C@H]12.O.[Na+] | 0.06

Test system: Escherichia coli
Assay: Compound was evaluated for its antibacterial activity against Escherichia coli ATCC 25922
Format: functional
Details: not given

SMILES | MIC [ng/mL]
C[C@@H](O)[C@H]1C(=O)N2C(C(=O)[O-])=C(S[C@@H]3CN[C@H](C(=O)Nc4cccc(C(=O)O)c4)C3)[C@H](C)[C@H]12.O.[Na+] | ≤ 8

Test system: Klebsiella pneumoniae
Assay: Compound was evaluated for its antibacterial activity against Klebsiella pneumoniae 6 ESBL
Format: functional
Details: not given

SMILES | MIC [µg/mL]
C[C@@H](O)[C@H]1C(=O)N2C(C(=O)[O-])=C(S[C@@H]3CN[C@H](C(=O)Nc4cccc(C(=O)O)c4)C3)[C@H](C)[C@H]12.O.[Na+] | 0.06

Test system: Escherichia coli
Assay: Compound was evaluated for its antibacterial activity against Escherichia coli CCARM 1117 MDR
Format: functional
Details: not given

SMILES | MIC [µg/mL]
C[C@@H](O)[C@H]1C(=O)N2C(C(=O)[O-])=C(S[C@@H]3CN[C@H](C(=O)Nc4cccc(C(=O)O)c4)C3)[C@H](C)[C@H]12.O.[Na+] | 0.03

Test system: Shigella flexneri
Assay: Compound was evaluated for its antibacterial activity against Shigella flexneri ATCC 9199
Format: functional
Details: not given

SMILES | MIC [ng/mL]
C[C@@H](O)[C@H]1C(=O)N2C(C(=O)[O-])=C(S[C@@H]3CN[C@H](C(=O)Nc4cccc(C(=O)O)c4)C3)[C@H](C)[C@H]12.O.[Na+] | ≤ 8

Test system: Escherichia coli
Assay: Compound was evaluated for its antibacterial activity against Escherichia coli CCARM 1113 MDR
Format: functional
Details: not given

SMILES | MIC [µg/mL]
C[C@@H](O)[C@H]1C(=O)N2C(C(=O)[O-])=C(S[C@@H]3CN[C@H](C(=O)Nc4cccc(C(=O)O)c4)C3)[C@H](C)[C@H]12.O.[Na+] | 0.06

Test system: Escherichia coli
Assay: Compound was evaluated for its antibacterial activity against Escherichia coli TEM
Format: functional
Details: not given

SMILES | MIC [µg/mL]
C[C@@H](O)[C@H]1C(=O)N2C(C(=O)[O-])=C(S[C@@H]3CN[C@H](C(=O)Nc4cccc(C(=O)O)c4)C3)[C@H](C)[C@H]12.O.[Na+] | 0.016

Test system: Salmonella enteritidis
Assay: Compound was evaluated for its antibacterial activity against […] enteritidis
Format: functional, Salmonella enterica subsp. enterica serovar Enteritidis
Details: Salmonella enterica

SMILES | MIC [ng/mL]
C[C@@H](O)[C@H]1C(=O)N2C(C(=O)[O-])=C(S[C@@H]3CN[C@H](C(=O)Nc4cccc(C(=O)O)c4)C3)[C@H](C)[C@H]12.O.[Na+] | ≤ 8

Test system: Escherichia coli
Assay: Compound was evaluated for its antibacterial activity against Escherichia coli DC 2
Format: functional
Details: not given

SMILES | MIC [µg/mL]
C[C@@H](O)[C@H]1C(=O)N2C(C(=O)[O-])=C(S[C@@H]3CN[C@H](C(=O)Nc4cccc(C(=O)O)c4)C3)[C@H](C)[C@H]12.O.[Na+] | 0.016

Test system: Pseudomonas aeruginosa
Assay: Compound was evaluated for its antibacterial activity against Pseudomonas aeruginosa 2 MDR
Format: functional
Details: not given

SMILES | MIC [µg/mL]
C[C@@H](O)[C@H]1C(=O)N2C(C(=O)[O-])=C(S[C@@H]3CN[C@H](C(=O)Nc4cccc(C(=O)O)c4)C3)[C@H](C)[C@H]12.O.[Na+] | 8

Test system: Salmonella typhimurium
Assay: Compound was evaluated for its antibacterial activity against Salmonella Typhimurium 1
Format: functional, Salmonella enterica subsp. enterica serovar Typhimurium
Details: Salmonella enterica

SMILES | MIC [ng/mL]
C[C@@H](O)[C@H]1C(=O)N2C(C(=O)[O-])=C(S[C@@H]3CN[C@H](C(=O)Nc4cccc(C(=O)O)c4)C3)[C@H](C)[C@H]12.O.[Na+] | ≤ 8

Test system: Salmonella typhimurium
Assay: Compound was evaluated for its antibacterial activity against Salmonella Typhimurium
Format: functional, Salmonella enterica subsp. enterica serovar Typhimurium
Details: Salmonella enterica

SMILES | MIC [µg/mL]
C[C@@H](O)[C@H]1C(=O)N2C(C(=O)[O-])=C(S[C@@H]3CN[C@H](C(=O)Nc4cccc(C(=O)O)c4)C3)[C@H](C)[C@H]12.O.[Na+] | 0.016

Test system: Klebsiella oxytoca
Assay: Compound was evaluated for its antibacterial activity against Klebsiella oxytoca 1082E
Format: functional
Details: not given

SMILES | MIC [µg/mL]
C[C@@H](O)[C@H]1C(=O)N2C(C(=O)[O-])=C(S[C@@H]3CN[C@H](C(=O)Nc4cccc(C(=O)O)c4)C3)[C@H](C)[C@H]12.O.[Na+] | 0.03

Test system: Klebsiella pneumoniae
Assay: Compound was evaluated for its antibacterial activity against Klebsiella pneumoniae 1 ESBL
Format: functional
Details: not given

SMILES | MIC [µg/mL]
C[C@@H](O)[C@H]1C(=O)N2C(C(=O)[O-])=C(S[C@@H]3CN[C@H](C(=O)Nc4cccc(C(=O)O)c4)C3)[C@H](C)[C@H]12.O.[Na+] | 0.016

Test system: Salmonella enteritidis
Assay: Compound was evaluated for its antibacterial activity against […] enteritidis 1
Format: functional, Salmonella enterica subsp. enterica serovar Enteritidis
Details: Salmonella enterica

SMILES | MIC [ng/mL]
C[C@@H](O)[C@H]1C(=O)N2C(C(=O)[O-])=C(S[C@@H]3CN[C@H](C(=O)Nc4cccc(C(=O)O)c4)C3)[C@H](C)[C@H]12.O.[Na+] | ≤ 8

Test system: Escherichia coli
Assay: Compound was evaluated for its antibacterial activity against Escherichia coli CCARM 1108 MDR
Format: functional
Details: not given

SMILES | MIC [µg/mL]
C[C@@H](O)[C@H]1C(=O)N2C(C(=O)[O-])=C(S[C@@H]3CN[C@H](C(=O)Nc4cccc(C(=O)O)c4)C3)[C@H](C)[C@H]12.O.[Na+] | 0.016

Test system: Klebsiella pneumoniae
Assay: Compound was evaluated for its antibacterial activity against Klebsiella pneumoniae 5 ESBL
Format: functional
Details: not given

SMILES | MIC [ng/mL]
C[C@@H](O)[C@H]1C(=O)N2C(C(=O)[O-])=C(S[C@@H]3CN[C@H](C(=O)Nc4cccc(C(=O)O)c4)C3)[C@H](C)[C@H]12.O.[Na+] | ≤ 8

Test system: Salmonella enteritidis
Assay: Compound was evaluated for its antibacterial activity against […] enteritidis 2
Format: functional, Salmonella enterica subsp. enterica serovar Enteritidis
Details: Salmonella enterica

SMILES | MIC [ng/mL]
C[C@@H](O)[C@H]1C(=O)N2C(C(=O)[O-])=C(S[C@@H]3CN[C@H](C(=O)Nc4cccc(C(=O)O)c4)C3)[C@H](C)[C@H]12.O.[Na+] | ≤ 8

Test system: Escherichia coli
Assay: Compound was evaluated for its antibacterial activity against Escherichia coli CCARM 1114 MDR
Format: functional
Details: not given

SMILES | MIC [µg/mL]
C[C@@H](O)[C@H]1C(=O)N2C(C(=O)[O-])=C(S[C@@H]3CN[C@H](C(=O)Nc4cccc(C(=O)O)c4)C3)[C@H](C)[C@H]12.O.[Na+] | 0.25
